From ChEMBL document CHEMBL1201862, “PubChem BioAssay data set” (2004)
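These data come from cells grown in 96-well plates and exposed to compound for 48 hours at five concentrations. GI50: concentration for 50% inhibition of growth.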 Active and inactive are the calls of the source. Cut-off read from the data, not from the text of the source: active = GI50 up to about 1.1 µM and inactive = higher.

How the values were obtained:
Assay in all cases: DTP human tumour cell line panel, 48 h
A498 = tested on: A498
COLO 205 = tested on: COLO 205
HCT-116 = tested on: HCT-116
HT-29 = tested on: HT-29
IGROV-1 = tested on: IGROV-1
MDA-MB-231 = tested on: MDA-MB-231
MDA-N = tested on: MDA-N
NCI-H23 = tested on: NCI-H23
SK-MEL-2 = tested on: SK-MEL-2
SN12C = tested on: SN12C
SNB-19 = tested on: SNB-19
SR = tested on: SR
U-251 = tested on: U-251
UACC-257 = tested on: UACC-257
A549 = tested on: A549
M14 = tested on: M14
OVCAR-8 = tested on: OVCAR-8
SF-539 = tested on: SF-539
T47D = tested on: T47D

Measured: GI50

CCOC(=O)Nc1sc2c(c1C#N)CCCC2
inactive: A498 85.3 µM | COLO 205 > 100 µM | HCT-116 74.1 µM | HT-29 > 100 µM | IGROV-1 > 100 µM | MDA-MB-231 71.3 µM | MDA-N 50.4 µM | NCI-H23 > 100 µM | SK-MEL-2 > 100 µM | SN12C > 100 µM | SNB-19 89.5 µM | SR 75 µM | U-251 > 100 µM | UACC-257 > 100 µM

Clc1ccc2c(SCC3CO3)c3ccccc3nc2c1 (centres undefined)
inactive: A498 17.3 µM | A549 7.31 µM | COLO 205 3.02 µM | HCT-116 1.66 µM | HT-29 1.64 µM | IGROV-1 1.33 µM | M14 1.72 µM | MDA-MB-231 2.33 µM | NCI-H23 3.54 µM | OVCAR-8 2.19 µM | SF-539 2.13 µM | SK-MEL-2 2.7 µM | SN12C 2.02 µM | SNB-19 5.43 µM | SR 2.04 µM | T47D 1.66 µM | U-251 1.84 µM | UACC-257 2.49 µM

[O-][S+](Cc1ccccc1)c1ccccc1Cn1cccc1 (centres undefined)
inactive: A549 > 100 µM | COLO 205 > 100 µM | HCT-116 > 100 µM | HT-29 > 100 µM | IGROV-1 > 100 µM | M14 > 100 µM | MDA-MB-231 > 100 µM | NCI-H23 > 100 µM | SF-539 > 100 µM | SK-MEL-2 > 100 µM | SN12C > 100 µM | SNB-19 > 100 µM | SR 23 µM | T47D > 100 µM | U-251 > 100 µM | UACC-257 > 100 µM

O=C1C=C/C(=N/c2ccccc2)c2ccccc21
inactive: A498 21.2 µM | A549 7.38 µM | COLO 205 7.03 µM | HCT-116 12.1 µM | HT-29 16.9 µM | IGROV-1 5.25 µM | M14 6.21 µM | MDA-MB-231 1.9 µM | NCI-H23 2.62 µM | OVCAR-8 11.3 µM | SF-539 15.1 µM | SK-MEL-2 2.19 µM | SN12C 12.8 µM | SNB-19 21.8 µM | SR 11.4 µM | T47D 16.2 µM | U-251 7.82 µM | UACC-257 2.64 µM

N/N=C(\N)SCCCCCCCCCCS/C(N)=N/N
inactive: A498 15.1 µM | A549 18 µM | COLO 205 14.6 µM | HCT-116 26.8 µM | HT-29 14.6 µM | IGROV-1 18.7 µM | M14 29.4 µM | MDA-MB-231 20.4 µM | NCI-H23 25.8 µM | OVCAR-8 16.8 µM | SF-539 29.6 µM | SK-MEL-2 16.7 µM | SN12C 34.9 µM | SNB-19 40.7 µM | SR 13.2 µM | T47D 5.57 µM | U-251 17.6 µM | UACC-257 30.1 µM

C=C(C#N)C1OCC2OC(C)(C)OC21 (centres undefined)
inactive: A498 22.2 µM | A549 36 µM | COLO 205 15.4 µM | HCT-116 18.7 µM | HT-29 34.9 µM | IGROV-1 37.4 µM | M14 15.7 µM | NCI-H23 18.6 µM | OVCAR-8 21.5 µM | SF-539 16.1 µM | SK-MEL-2 27.4 µM | SN12C 18.4 µM | SNB-19 > 100 µM | U-251 32.7 µM | UACC-257 15.5 µM

CCCC(=O)OC1C(CO)OC(n2cc(F)c(=O)[nH]c2=O)C1F (centres undefined)
inactive: A498 5.68 µM | A549 > 100 µM | COLO 205 > 100 µM | HCT-116 22.3 µM | HT-29 55.2 µM | IGROV-1 95.7 µM | NCI-H23 > 100 µM | OVCAR-8 72.1 µM | SF-539 1.67 µM | SK-MEL-2 > 100 µM | SN12C 15.4 µM | SR 5.41 µM | T47D > 100 µM | U-251 7.45 µM | UACC-257 > 100 µM

CSC1=C(C#N)C(=O)N(c2ccc(C)cc2)C(=S)C1C#N (centres undefined)
inactive: A498 > 100 µM | A549 > 100 µM | COLO 205 > 100 µM | HCT-116 > 100 µM | HT-29 > 100 µM | IGROV-1 > 100 µM | M14 > 100 µM | MDA-MB-231 > 100 µM | MDA-N > 100 µM | OVCAR-8 > 100 µM | SF-539 > 100 µM | SK-MEL-2 > 100 µM | SN12C > 100 µM | SNB-19 > 100 µM | U-251 > 100 µM | UACC-257 > 100 µM

Brc1ccc(C2=NCSC(c3ccc(Br)cc3)=N2)cc1
inactive: A549 32.3 µM | COLO 205 59.7 µM | HCT-116 16.6 µM | HT-29 27.4 µM | IGROV-1 33.2 µM | M14 30.5 µM | MDA-MB-231 68.9 µM | MDA-N 20.1 µM | NCI-H23 32 µM | OVCAR-8 37.8 µM | SF-539 31.5 µM | SK-MEL-2 16.6 µM | SN12C 29.6 µM | SNB-19 31.8 µM | SR 22.2 µM | U-251 16.7 µM | UACC-257 19.1 µM

CC(=O)OCc1ccc2c(c1)C(O)NC(=O)O2 (centres undefined)
inactive: A549 > 100 µM | COLO 205 > 100 µM | HCT-116 52.8 µM | HT-29 > 100 µM | IGROV-1 > 100 µM | M14 > 100 µM | MDA-MB-231 > 100 µM | NCI-H23 > 100 µM | OVCAR-8 > 100 µM | SF-539 > 100 µM | SK-MEL-2 > 100 µM | SN12C 50.7 µM | SNB-19 > 100 µM | SR 10.4 µM | T47D 34.6 µM | U-251 58.6 µM | UACC-257 > 100 µM

CC(C)(C)OC(=O)c1cnc(Cl)cn1
inactive: A549 69.7 µM | COLO 205 71.3 µM | HCT-116 33.6 µM | HT-29 46.9 µM | IGROV-1 23.4 µM | M14 29.4 µM | MDA-MB-231 46.1 µM | NCI-H23 20.7 µM | OVCAR-8 38.2 µM | SF-539 > 100 µM | SK-MEL-2 29.9 µM | SN12C 31.8 µM | SNB-19 95.3 µM | SR 45 µM | T47D 35.2 µM | U-251 33.8 µM | UACC-257 30.4 µM

O=c1c(C(c2cc(OCc3ccccc3)cc(OCc3ccccc3)c2)c2c(O)oc3ccccc3c2=O)c(O)oc2ccccc12
inactive: A498 12 µM | A549 7.05 µM | COLO 205 8.45 µM | HCT-116 3.39 µM | HT-29 4.15 µM | IGROV-1 14.1 µM | M14 7.13 µM | MDA-MB-231 4.57 µM | NCI-H23 4.42 µM | OVCAR-8 4.18 µM | SF-539 5.86 µM | SK-MEL-2 3.86 µM | SN12C 3.71 µM | SNB-19 3.74 µM | SR 3.28 µM | T47D 8.55 µM | U-251 4.78 µM | UACC-257 13 µM
